Experimental findings from patent US10870647B2, “Imidazopyridine derivative, method for preparing same, and pharmaceutical composition containing same as active ingredient for preventing or treating cancer” (DAEGU-GYEONGBUK MEDICAL INNOVATION FOUNDATION, priority 2016, dated 2020) are described below.

The structures appear in SMILES notation.

Test in all cases: Kinase selectivity, scanMAX Kinase assay panel (DiscoverX), % control at 1 uM
What all share (type): binding

The target in experiment [1] is T1, scanMAX Kinase assay panel (Homo sapiens, UniProt O94921).
T1 construct: purchased DiscoverX
Conditions: PFTK1; 1 uM; read-out: Percent Control (%). Summed up: (§1)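 Binding across the scanMAX kinase panel was tested at 1 uM compound. % control = (compound − positive control)/(negative control − positive control) × 100; below 35 counted as active.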

Experiment [2] has as its target T2, scanMAX Kinase assay panel (Homo sapiens, UniProt P29322).
T2 construct: purchased DiscoverX
T2 sequence (P29322 28-1005): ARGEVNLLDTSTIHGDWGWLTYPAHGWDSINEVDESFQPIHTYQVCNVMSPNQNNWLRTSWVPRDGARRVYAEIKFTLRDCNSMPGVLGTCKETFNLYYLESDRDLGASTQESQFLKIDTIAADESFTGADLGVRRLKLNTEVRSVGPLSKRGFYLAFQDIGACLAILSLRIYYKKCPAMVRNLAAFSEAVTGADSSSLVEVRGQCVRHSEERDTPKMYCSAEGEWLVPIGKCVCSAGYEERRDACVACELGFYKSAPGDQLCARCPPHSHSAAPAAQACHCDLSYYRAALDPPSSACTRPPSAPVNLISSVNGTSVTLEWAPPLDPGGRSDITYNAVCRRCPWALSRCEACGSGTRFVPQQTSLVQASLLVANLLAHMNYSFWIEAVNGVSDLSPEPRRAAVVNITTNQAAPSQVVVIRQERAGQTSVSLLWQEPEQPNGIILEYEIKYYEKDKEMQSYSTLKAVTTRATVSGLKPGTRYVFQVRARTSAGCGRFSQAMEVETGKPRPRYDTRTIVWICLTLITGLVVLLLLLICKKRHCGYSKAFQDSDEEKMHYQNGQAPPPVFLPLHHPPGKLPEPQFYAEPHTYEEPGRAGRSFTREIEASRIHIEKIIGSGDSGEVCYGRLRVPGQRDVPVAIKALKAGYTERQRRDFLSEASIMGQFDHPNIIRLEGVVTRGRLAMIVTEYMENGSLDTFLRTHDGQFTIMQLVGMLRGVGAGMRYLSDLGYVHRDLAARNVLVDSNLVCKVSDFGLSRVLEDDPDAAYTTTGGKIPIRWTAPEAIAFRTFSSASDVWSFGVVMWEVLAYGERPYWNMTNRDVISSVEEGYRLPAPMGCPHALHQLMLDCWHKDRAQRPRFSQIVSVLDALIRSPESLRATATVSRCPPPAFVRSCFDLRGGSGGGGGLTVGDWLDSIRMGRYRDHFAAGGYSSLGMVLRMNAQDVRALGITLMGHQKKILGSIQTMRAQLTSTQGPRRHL
Conditions: EPHA8; 1 uM; read-out: Percent Control (%). Summed up: as §1

The target in experiment [3] is T3, scanMAX Kinase assay panel (Homo sapiens, UniProt Q8TBX8).
T3 construct: purchased DiscoverX
T3 sequence (Q8TBX8 1-421): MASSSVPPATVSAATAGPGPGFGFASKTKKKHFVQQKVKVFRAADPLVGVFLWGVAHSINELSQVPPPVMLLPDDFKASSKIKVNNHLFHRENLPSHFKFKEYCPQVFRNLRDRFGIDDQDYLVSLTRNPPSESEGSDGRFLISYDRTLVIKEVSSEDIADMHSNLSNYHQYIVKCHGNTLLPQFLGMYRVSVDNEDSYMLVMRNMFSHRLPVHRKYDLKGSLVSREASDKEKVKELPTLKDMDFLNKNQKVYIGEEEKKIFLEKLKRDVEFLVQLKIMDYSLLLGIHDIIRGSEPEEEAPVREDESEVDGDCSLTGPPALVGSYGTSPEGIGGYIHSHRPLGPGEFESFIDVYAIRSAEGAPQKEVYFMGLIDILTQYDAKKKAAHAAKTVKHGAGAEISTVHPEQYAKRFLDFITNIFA
Conditions: PIP5K2C; 1 uM; read-out: Percent Control (%). Summed up: as §1

In experiment [4] the target is T4, scanMAX Kinase assay panel (Homo sapiens, UniProt Q9H2K8).
T4 construct: purchased DiscoverX
T4 sequence (Q9H2K8 1-898): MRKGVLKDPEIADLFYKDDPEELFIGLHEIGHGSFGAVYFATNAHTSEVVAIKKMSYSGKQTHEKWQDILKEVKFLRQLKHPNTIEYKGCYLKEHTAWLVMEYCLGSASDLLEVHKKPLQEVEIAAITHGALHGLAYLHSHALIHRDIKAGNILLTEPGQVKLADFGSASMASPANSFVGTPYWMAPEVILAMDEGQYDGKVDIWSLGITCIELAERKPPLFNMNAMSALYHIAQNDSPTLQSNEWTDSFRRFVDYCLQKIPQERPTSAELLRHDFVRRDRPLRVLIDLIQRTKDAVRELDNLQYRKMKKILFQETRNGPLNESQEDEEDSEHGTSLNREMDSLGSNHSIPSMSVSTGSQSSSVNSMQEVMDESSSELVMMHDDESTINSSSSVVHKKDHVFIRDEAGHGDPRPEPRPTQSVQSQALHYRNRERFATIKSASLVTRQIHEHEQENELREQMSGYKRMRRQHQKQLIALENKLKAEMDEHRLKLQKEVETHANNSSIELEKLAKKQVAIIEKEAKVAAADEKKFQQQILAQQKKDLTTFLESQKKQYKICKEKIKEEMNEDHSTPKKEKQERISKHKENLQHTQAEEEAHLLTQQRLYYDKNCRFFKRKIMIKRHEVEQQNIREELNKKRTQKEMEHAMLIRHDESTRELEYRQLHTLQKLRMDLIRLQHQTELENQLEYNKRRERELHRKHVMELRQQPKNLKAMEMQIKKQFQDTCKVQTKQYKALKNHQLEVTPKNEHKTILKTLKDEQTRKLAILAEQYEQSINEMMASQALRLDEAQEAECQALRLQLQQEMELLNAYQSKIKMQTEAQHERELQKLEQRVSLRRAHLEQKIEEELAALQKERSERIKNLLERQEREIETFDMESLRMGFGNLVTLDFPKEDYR
Conditions: TAOK3; 1 uM; read-out: Percent Control (%). In outline: as §1

T1 sequence (O94921 whole entry): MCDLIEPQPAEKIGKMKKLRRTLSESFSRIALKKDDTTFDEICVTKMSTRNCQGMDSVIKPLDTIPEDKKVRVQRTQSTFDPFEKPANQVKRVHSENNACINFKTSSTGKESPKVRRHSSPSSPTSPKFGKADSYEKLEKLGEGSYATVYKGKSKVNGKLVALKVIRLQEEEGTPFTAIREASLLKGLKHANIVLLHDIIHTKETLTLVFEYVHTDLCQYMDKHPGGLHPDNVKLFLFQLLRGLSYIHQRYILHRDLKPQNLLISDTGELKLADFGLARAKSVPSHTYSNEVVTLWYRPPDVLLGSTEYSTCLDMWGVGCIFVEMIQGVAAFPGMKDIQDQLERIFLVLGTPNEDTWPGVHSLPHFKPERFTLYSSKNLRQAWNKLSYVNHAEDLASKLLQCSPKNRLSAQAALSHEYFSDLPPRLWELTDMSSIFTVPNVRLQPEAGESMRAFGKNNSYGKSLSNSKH

As to `Cc1ccc(C(=O)Nc2ccc(CN3CCN(C)CC3)c(C(F)(F)F)c2)cc1C#Cc1cnc2c(Nc3cnn(C)c3)cccn12` [Example 1, 4-methyl-3-((8-((1-methyl-1H-pyrazol-4-yl)amino)imidazo[1,2-a]pyridin-3-yl)ethynyl)-N-(4-((4-methylpiperazin-1-yl)methyl)-3-(trifluoromethyl)phenyl)benzamide], the remaining binding at 1 µM in experiment [1] is 11%; in experiment [2] it was 0%; in experiment [3] it was 97%; in experiment [4], 1%.

As to `Cc1cn(-c2cc(NC(=O)c3ccc(C)c(C#Cc4cnc5c(Nc6cnn(C)c6)cccn45)c3)cc(C(F)(F)F)c2)cn1` [Example 12, 4-methyl-N-(3-(4-methyl-1H-imidazol-1-yl)-5-(trifluoromethyl)phenyl)-3-((8-((1-methyl-1H-pyrazol-4-yl)amino)imidazo[1,2-a]pyridin-3-yl)ethynyl)benzamide], the remaining binding at 1 µM in experiment [1] was 87%; in experiment [2], 1%; in experiment [3], 73%; in experiment [4], 61%.

As for `Cc1ccc(NC(=O)C2(C(=O)Nc3ccc(F)cc3)CC2)cc1C#Cc1cnc2c(Nc3cnn(C(C)C)c3)cccn12` [Example 78], the remaining binding at 1 µM in experiment [1] was found to be 100%; in experiment [2], 46%; in experiment [3] it was 95%; in experiment [4], 99%.
